From patent US8962600B2, “Neuroprotective compounds and their use” (The Medical College of Wisconsin, Inc., priority 2009, dated 2015)

Legend:
[1] = system: dopaminergic neurons in substantia nigra; assay: FLUORO-JADE B and tyrosine hydroxylase double labeling in substantia nigra; type: in vivo, C57BL/6 mice; details: MPTP- and diapocynin-treated mice; 7 days after final MPTP injection
Protocol: (§1) Six- to 8-week-old C57BL/6 mice weighing 24 to 28 g were housed in standard conditions of constant temperature (22±1° C.), humidity (relative, 30%), and a 12-h light/dark cycle. Mice were allowed free access to food and water. Use of the animals and protocol procedures were approved and supervised by the Committee on Animal Care at Iowa State University (Ames, Iowa). For neurodegeneration studies, mice either received diapocynin (300 mg/kg dose) by oral gavage for 1 day (pre-treatment before MPTP administration), 5 days (co-treatment with MPTP), or 7 days (post-treatment after MPTP).
FLUORO-JADE B® and tyrosine hydroxylase (TH) double-labeling was performed in substantia nigra sections, as described previously (58). In brief, 7 days after the final MPTP injection, mice were sacrificed and perfused with 4% PFA and post-fixed with PFA and 30% sucrose, respectively. Fixed brains were cut into 30 μm sections and kept in 30% sucrose-ethylene glycol solutions at −20° C. On the day of staining, sections were rinsed with PBS and incubated with anti-TH antibody (Millipore, mouse monoclonal, dilution 1;1600) followed by Alexa Fluor 568 donkey anti-mouse secondary antibody (Invitrogen). […] Sections were viewed under a Nikon inverted fluorescence microscope (model TE-2000U). […]

IL-12 = assay: LPS-induced IL-12 release in primary microglia, LUMINEX immunoassay; type: cell-based, mouse; details: diapocynin 10 μM, LPS 24 hr
Protocol: Primary microglia were obtained from 1-2 day old C57/b16 mouse pups. Upon collection, whole brains were kept in ice-cold DMEM-F12 medium containing 10% FBS, 1× sodium pyruvate, 1× NEAAs, 100 units pen/strep, and Q. After collection, the brains were placed in 0.25% trypsin-EDTA and incubated at 37° C., with gentle shaking every 5-10 min. After 30 min, the trypsin was removed, and the brains are washed in warmed medium twice. After washing, medium was added to the brains, and the brains were homogenized using gentle pipetting, starting with a 25 ml pipette and moving to smaller pipette tips as the brains were broken up. When the brains were sufficiently homogenized to a single-cell suspension, they were filtered with a 70 μm nylon filter, which allowed microglia and astrocytes to be collected. The resultant cell suspension was plated in T-75 flasks and allowed to grow for 12-14 days at 37° C., 5% CO2. […]
Cytokine levels of BV2 and microglial cells treated with diapocynin were determined by LUMINEX® multiplex immunoassay. […]
Cytokine standards and controls were adjusted to 40 μl volume and the LUMINEX® Samples were run on a LUMINEX® 200 Total System and analyzed with Multiplex Analysis—LUMINEX® Software (Invitrogen, Carlsbad, Calif.).

MPTP-intoxicated mice = assay: Rotarod in MPTP-injected mice; type: in vivo, C57BL/6 mice; details: 20 rpm; MPTP- and diapocynin-treated mice; 300 mg/kg oral gavage; 5 days after last MPTP injection
Protocol: as §1
Two types of behavioral tests were performed including an Open Field experiment for testing locomotor activities and a Rotarod experiment to test coordination of movement of mice after MPTP and diapocynin treatment (48, 56). An Open Field activity monitor (model RXYZCM-16; AccuScan, Columbus, Ohio) was used to measure the spontaneous activity of mice. The activity chamber was 40×40×30.5 cm, made of clear PLEXIGLAS® and covered with a PLEXIGLAS® lid with holes for ventilation. Infrared monitoring sensors were located every 2.54 cm along the perimeter (16 infrared beams along each side) and 2.5 cm above the floor. Two additional sets of 16 sensors were located 8.0 cm above the floor on opposite sides. Data were collected and analyzed by a VersaMax Analyzer (model CDA-8, AccuScan). […]

COc1cc(C(C)=O)cc(-c2cc(C(C)=O)cc(OC)c2O)c1O [diapocynin]
FLUORO-JADE B-positive cells in substantia nigra [1]: fewer
TH-positive cells in substantia nigra [1]: increases
blocking LPS-induced release of IL-12 (IL-12): very effective
decrease in time spent on Rotarod compared to control mice (MPTP-intoxicated mice): < 25%
